Molecules are shown by their SMILES. ≈ marks a conversion by molar mass, not a printed value.

This series is described as follows: Carrier properties: solubility. It is filed as physicochemical. The following applies: for Solubility (appearance): 200 mg/mL.

As for `Nc1ccc(F)cc1C(=O)NCCCCCCCC(=O)O` [Compound 1, N-(2-Amino-5-fluorobenzoyl)-8-aminocaprylic Acid], the “Solubility (appearance)” value (pH = 8.7) is listed as “slightly milky”. Besides, the solubility (in general, how much of the substance goes into solution per volume) (pH 8.7) came out at 200 mg/mL (≈ 675 mM).
As to `Nc1ccc(F)cc1C(=O)Nc1ccc(CCCC(=O)O)cc1` [Compound 2, 4-(N-(2-amino-5-fluorobenzoyl)-4-aminophenyl)butyric], the “Solubility (appearance)” value (pH = 8.44) is given as “milky suspension”. Where the note is “pH 8.44”, the concentration in solution (solubility) came to 200 mg/mL (≈ 632 mM).
Consider `O=C(O)CCCCCCCC(=O)Nc1cc(Cl)ccc1O` [Compound 3, 8-(2-hydroxy-5-chloroanilinocarbonyl)octanoic acid], for which the “Solubility (appearance)” value (pH = 8.28) is “soluble”. For the setting “soluble at pH = 8.28”, this compound showed a solubility of 200 mg/mL (≈ 637 mM).

The record behind these values is patent US5863944A, “Compounds and compositions for delivering active agents” (Emisphere Technologies, Inc., priority 1997, dated 1999).
